Source: PMC9106635, “Stimulation of the atypical chemokine receptor 3 (ACKR3) by a small-molecule agonist attenuates fibrosis in a preclinical liver but not lung injury model” (Cellular and Molecular Life Sciences: CMLS, 2022)

Experiments:
[1] = tested on: mouse CXCL12 plasma levels; experiment: Mouse CXCL12 plasma determination (Bio-Plex); assay type: in vivo; conditions: liver fibrosis model, day 28, 45 mg/kg/dose PO QD
Protocol: CXCL12 plasma levels were determined using Bio-Plex Pro Mouse Chemokine SDF-1a/CXCL12 (Bio-Rad) according to the manufacturer’s protocol. Prior to the assay mouse plasma samples were centrifuged for 15 min at 1000×g at 4 °C to remove any particulates. A four-fold dilution series of mouse CXCL12, blank samples and 1:5 diluted plasma samples were prepared. A 1:1 mixture of magnetic beads (50 µL/well) and sample (50 µL/well) was added to the 96-well assay plate, which was then sealed and incubated (30 min at RT) on a plate shaker at 850 rpm protected from light. After washing three times with wash buffer 25 µL/well detection antibody was added and the plate was again incubated as described above. The plate was again washed three times (100 µL/well wash buffer) followed by the addition of streptavidin-PE (50 µL/well). The plate was sealed and incubated (10 min at RT) at 850 rpm protected from light. Finally, the plate was again washed three times and the magnetic beads were resuspended in fresh assay buffer (152 µL/well). The plate was sealed and shaken for an additional 30 s before being analyzed with the Bioplex 200 System. Data were analyzed with the Bio-Plex Manager Software.

[2] = tested on: CCl4-induced liver fibrosis in C57BL/6J mice; experiment: CCl4-induced liver fibrosis model; assay type: in vivo, mouse; conditions: 45 mg/kg/dose PO QD, day 28, vs CCl4 + captisol; P < 0.0001 and P = 0.004
Protocol: A preclinical mouse model for CCl4-induced liver fibrosis was performed at the Department of Metabolic Health Research, The Netherlands Organisation for Applied Scientific Research (TNO) (Leiden, The Netherlands). Fifty-two male C57BL/6J mice were matched on body weight prior to the study and divided into five groups (experimental study design, Supplementary Figure S1a). Starting at day 0, 10–12-week-old mice were intraperitoneally (i.p.) injected (three times a week) with mineral oil (group 1) or CCl4 (15% v/v in mineral oil, group 2–5) for a total of 28 days. At day 0, mice received subcutaneous treatment with compound 18a (15 mg/kg/dose, twice daily (BID), group 3), or corresponding vehicle control (23% HPBCD, twice daily (BID), groups 1 and 2)], or received daily gavage with either an ALK5/ALK4 kinase inhibitor [SM 16 (45 mg/kg/dose, PO, QD, group 5) or its corresponding vehicle control (β-cyclodextrin sulfobutyl ether sodium salt or captisol, PO, QD, group 4)]. Plasma samples were collected by a tail vein bleed at day 7. At day 28, mice were sacrificed using CO2 and additional plasma samples and liver lobes were collected. As a primary endpoint collagen surface area was determined on cross-sections of the lateral left lobe by picro sirius red (PSR) staining. As a secondary endpoint collagen content (hydroxyproline) of the left median lobe was analyzed using a chromogenic assay according to the manufacturer’s instructions (QuickZyme Biosciences, Leiden, The Netherlands).

Cc1cccc(-c2[nH]c(C34CCC(C(N)=O)(CC3)CC4)nc2-c2ccc3c(c2)OCO3)n1 [SM 16, reference compound]
plasma CXCL12 levels [1]: no further increase of plasma CXCL12 was observed
liver fibrosis: PSR-positive area and hydroxyproline content [2]: significantly attenuated liver fibrosis
